Experimental data as given in US9580463B2 (BRISTOL-MYERS SQUIBB COMPANY, priority 2013, dated 2017).

tested on: HCV genotype 1b (Con1) replicon in HUH-7 cells; assay: HCV replicon luciferase reporter assay, genotype 1b; format: cell-based; details: Hepatitis C virus, 72 h, genotype 1b replicon, 3 days incubation, read-out: LE_1b (EC50)
Source text: An HCV replicon whole cell system was established as described by Lohmann V, Korner F, Koch J, Herian U, Theilmann L, Bartenschlager R., Science 285(5424):110-3 (1999) and modified to introduce a luciferase reporter, as first described by Krieger et al (Krieger N, Lohmann V, and Bartenschlager R, J. Virol. 75(10):4614-4624 (2001)). CDNA encoding a humanized form of the Renilla luciferase gene and a linker sequence fused directly to the 3′-end of the luciferase gene were introduced into the replicon construct using an Asc1 restriction site located in core, directly upstream of the neomycin marker gene. The adaptive mutation at position 1179 (serine to isoleucine) was also introduced (Blight K J, Kolykhalov, A A, Rice, C M, Science 290(5498):1972-1974). A stable cell line constitutively expressing this HCV replicon construct was generated by first linearizing plasmid DNAs with ScaI. RNA transcripts were synthesized in vitro using the T7 MegaScript transcription kit (Ambion, Austin, Tex.) according to manufacturer's directions. In vitro transcripts of the cDNA were transfected into the human hepatoma cell line, HUH-7. […] Resulting cell lines were characterized for positive and negative strand RNA production and protein production over time. […]
HCV replicon luciferase assays were developed to monitor the inhibitory effects of compounds described in the disclosure on HCV genotypes 1a and 1b viral replication. HUH-7 cells, constitutively expressing the HCV replicon, were grown in Dulbecco's Modified Eagle Media (DMEM) (Gibco-BRL) containing 10% Fetal calf serum (FCS) (Sigma) and 1 mg/mL G418 (Gibco-BRL). Compounds were serially diluted 3 folds in DMSO for a twenty-point titration and subsequently transferred to sterile 384-well tissue-culture treated plates (Corning cat #3571). The plates were then seeded with 50 μL of cells at a density of 3.0×10^3 cells/well in DMEM containing 4% FCS (final DMSO concentration at 0.5%). After 3 days incubation at 37° C., cells were analyzed for Renilla Luciferase activity using the EnduRen as substrate (Promega cat #E6485). The EnduRen substrate was diluted in DMEM and then added to the plates to a final concentration of 7.5 μM. The plates were incubated for 2 hrs at 37° C. and then read immediately for 30 seconds with Viewlux Imager (PerkinElmer) using a luminescence program. To assess cytotoxicity of compounds, CC50 values were generated by multiplexing the EnduRen-containing plates with Cell Titer-Blue (Promega, cat # G8082). Cell-Titer Blue (3 μL) was added to each well and incubated for 8 hrs at 37° C. The fluorescence signal from each well was read, with an excitation wavelength at 525/10 nm and an emission wavelength of 598/10 nm, using the Viewlux Imager.
The EC50 values for compounds were calculated by using a four-parameter logistic equation: y=A+((B−A)/(1+((C/x)^D))), where A and B denotes minimal and maximal % inhibition, respectively, C is the EC50, D is the hill slope and x represents compound concentration.

Compound | EC50
COC[C@@H]1C[C@H](C)CC/C=C\[C@@H]2C[C@@]2(C(=O)NS(=O)(=O)C2(C)CC2)NC(=O)[C@@H]2C[C@@H](Oc3nc4cc(OC)c(F)cc4nc3C(F)(F)F)CN2C(=O)[C@H]1NC(=O)OC(C)(C)C(F)(F)F [Compound 1048, 1,1,1-trifluoro-2-methylpropan-2-yl ((2R,6S,7R,9R,13aS,14aR,16aS,Z)-2-((6-fluoro-7-methoxy-3-(trifluoromethyl)quinoxalin-2-yl)oxy)-7-(methoxymethyl)-9-methyl-14a-(((1-methylcyclopropyl)sulfonyl)carbamoyl)-5,16-dioxo-1,2,3,5,6,7,8,9,10,11,13a,14,14a,15,16,16a-hexadecahydrocyclopropa[e]pyrrolo[1,2-a][1,4]diazacyclopentadecin-6-yl)carbamate] | 0.27 nM

same assay, conditions: Hepatitis C virus, 72 h, genotype 1b replicon, 3 days incubation, read-out: LE_1b (EC50, range)

Compound | EC50
CCOc1cnc(O[C@@H]2C[C@H]3C(=O)N[C@]4(C(=O)NS(=O)(=O)C5(C)CC5)C[C@H]4/C=C\CC[C@@H](C)C[C@@H](COC)[C@H](NC(=O)OC(C)(C)C(C)(F)F)C(=O)N3C2)c2ccc(OC)cc12 [Compound 1068, 3,3-difluoro-2-methylbutan-2-yl ((2R,6S,7R,9R,13aS,14aR,16aS,Z)-2-((4-ethoxy-6-methoxyisoquinolin-1-yl)oxy)-7-(methoxymethyl)-9-methyl-14a-(((1-methylcyclopropyl)sulfonyl)carbamoyl)-5,16-dioxo-1,2,3,5,6,7,8,9,10,11,13a,14,14a,15,16,16a-hexadecahydrocyclopropa[e]pyrrolo[1,2-a][1,4]diazacyclopentadecin-6-yl)carbamate] | 0.1 to 0.5 nM
COC[C@@H]1C[C@H](C)CC/C=C\[C@@H]2C[C@@]2(C(=O)NS(=O)(=O)C2(C)CC2)NC(=O)[C@@H]2C[C@@H](Oc3nc4cc(OC)c(F)cc4nc3C(F)(F)F)CN2C(=O)[C@H]1NC(=O)OC(C)(C)C [Compound 1047, tert-butyl ((2R,6S,7R,9R,13aS,14aR,16aS,Z)-2-((6-fluoro-7-methoxy-3-(trifluoromethyl)quinoxalin-2-yl)oxy)-7-(methoxymethyl)-9-methyl-14a-(((1-methylcyclopropyl)sulfonyl)carbamoyl)-5,16-dioxo-1,2,3,5,6,7,8,9,10,11,13a,14,14a,15,16,16a-hexadecahydrocyclopropa[e]pyrrolo[1,2-a][1,4]diazacyclopentadecin-6-yl)carbamate] | 0.51 to 1 nM
CCOc1cnc(O[C@@H]2C[C@H]3C(=O)N[C@]4(C(=O)NS(=O)(=O)C5(C)CC5)C[C@H]4/C=C\CC[C@H](C)C[C@@H](COC)[C@H](NC(=O)OC(C)(C)C)C(=O)N3C2)c2ccc(OC)cc12 [Compound 1063, tert-butyl ((2R,6S,7R,9S,13aS,14aR,16aS,Z)-2-((4-ethoxy-6-methoxyisoquinolin-1-yl)oxy)-7-(methoxymethyl)-9-methyl-14a-(((1-methylcyclopropyl)sulfonyl)carbamoyl)-5,16-dioxo-1,2,3,5,6,7,8,9,10,11,13a,14,14a,15,16,16a-hexadecahydrocyclopropa[e]pyrrolo[1,2-a][1,4]diazacyclopentadecin-6-yl)carbamate] | 0.1 to 0.5 nM
CCOc1ccc2nc(C(F)(F)F)c(O[C@@H]3C[C@H]4C(=O)N[C@]5(C(=O)NS(=O)(=O)C6(C)CC6)C[C@H]5/C=C\CC[C@@H](C)C[C@@H](COC)[C@H](NC(=O)OC(C)(C)C(F)(F)F)C(=O)N4C3)nc2c1 [Compound 1054, 1,1,1-trifluoro-2-methylpropan-2-yl ((2R,6S,7R,9R,13aS,14aR,16aS,Z)-2-((7-ethoxy-3-(trifluoromethyl)quinoxalin-2-yl)oxy)-7-(methoxymethyl)-9-methyl-14a-(((1-methylcyclopropyl)sulfonyl)carbamoyl)-5,16-dioxo-1,2,3,5,6,7,8,9,10,11,13a,14,14a,15,16,16a-hexadecahydrocyclopropa[e]pyrrolo[1,2-a][1,4]diazacyclopentadecin-6-yl)carbamate] | 0.1 to 0.5 nM
COC[C@@H]1C[C@@H](C)CC/C=C\[C@@H]2C[C@@]2(C(=O)NS(=O)(=O)C2(C)CC2)NC(=O)[C@@H]2C[C@@H](Oc3nc4cc(OC(C)C)ccc4nc3C(F)(F)F)CN2C(=O)[C@H]1NC(=O)OC(C)(C)C(C)(F)F [Compound 1055, 3,3-difluoro-2-methylbutan-2-yl ((2R,6S,7R,9S,13aS,14aR,16aS,Z)-2-((7-isopropoxy-3-(trifluoromethyl)quinoxalin-2-yl)oxy)-7-(methoxymethyl)-9-methyl-14a-(((1-methylcyclopropyl)sulfonyl)carbamoyl)-5,16-dioxo-1,2,3,5,6,7,8,9,10,11,13a,14,14a,15,16,16a-hexadecahydrocyclopropa[e]pyrrolo[1,2-a][1,4]diazacyclopentadecin-6-yl)carbamate] | 1.01 to 5 nM
COC[C@@H]1C[C@H](C)CC/C=C\[C@@H]2C[C@@]2(C(=O)NS(=O)(=O)C2(C)CC2)NC(=O)[C@@H]2C[C@@H](Oc3nc4cc(OC(C)C)ccc4nc3C(F)(F)F)CN2C(=O)[C@H]1NC(=O)OC(C)(C)C(C)(F)F [Compound 1056, 3,3-difluoro-2-methylbutan-2-yl ((2R,6S,7R,9R,13aS,14aR,16aS,Z)-2-((7-isopropoxy-3-(trifluoromethyl)quinoxalin-2-yl)oxy)-7-(methoxymethyl)-9-methyl-14a-(((1-methylcyclopropyl)sulfonyl)carbamoyl)-5,16-dioxo-1,2,3,5,6,7,8,9,10,11,13a,14,14a,15,16,16a-hexadecahydrocyclopropa[e]pyrrolo[1,2-a][1,4]diazacyclopentadecin-6-yl)carbamate] | 0.1 to 0.5 nM
COC[C@@H]1C[C@@H](C)CC/C=C\[C@@H]2C[C@@]2(C(=O)NS(=O)(=O)C2(C)CC2)NC(=O)[C@@H]2C[C@@H](Oc3nc4cc(OC)c(F)cc4nc3C(F)(F)F)CN2C(=O)[C@H]1NC(=O)OC(C)(C)C(F)(F)F [Compound 1046, 1,1,1-trifluoro-2-methylpropan-2-yl ((2R,6S,7R,9S,13aS,14aR,16aS,Z)-2-((6-fluoro-7-methoxy-3-(trifluoromethyl)quinoxalin-2-yl)oxy)-7-(methoxymethyl)-9-methyl-14a-(((1-methylcyclopropyl)sulfonyl)carbamoyl)-5,16-dioxo-1,2,3,5,6,7,8,9,10,11,13a,14,14a,15,16,16a-hexadecahydrocyclopropa[e]pyrrolo[1,2-a][1,4]diazacyclopentadecin-6-yl)carbamate] | 1.01 to 5 nM
COC[C@@H]1C[C@H](C)CC/C=C\[C@@H]2C[C@@]2(C(=O)NS(=O)(=O)C2(C)CC2)NC(=O)[C@@H]2C[C@@H](Oc3nc(OC)c4c(OC)cccc4n3)CN2C(=O)[C@H]1NC(=O)OC(C)(C)C(F)(F)F [Compound 1060, 1,1,1-trifluoro-2-methylpropan-2-yl ((2R,6S,7R,9R,13aS,14aR,16aS,Z)-2-((4,5-dimethoxyquinazolin-2-yl)oxy)-7-(methoxymethyl)-9-methyl-14a-(((1-methylcyclopropyl)sulfonyl)carbamoyl)-5,16-dioxo-1,2,3,5,6,7,8,9,10,11,13a,14,14a,15,16,16a-hexadecahydrocyclopropa[e]pyrrolo[1,2-a][1,4]diazacyclopentadecin-6-yl)carbamate] | 1.01 to 5 nM
CCOc1cnc(O[C@@H]2C[C@H]3C(=O)N[C@]4(C(=O)NS(=O)(=O)C5(C)CC5)C[C@H]4/C=C\CC[C@@H](C)C[C@@H](COC)[C@H](NC(=O)OC(C)(C)C)C(=O)N3C2)c2ccc(OC)cc12 [Compound 1064, tert-butyl ((2R,6S,7R,9R,13aS,14aR,16aS,Z)-2-((4-ethoxy-6-methoxyisoquinolin-1-yl)oxy)-7-(methoxymethyl)-9-methyl-14a-(((1-methylcyclopropyl)sulfonyl)carbamoyl)-5,16-dioxo-1,2,3,5,6,7,8,9,10,11,13a,14,14a,15,16,16a-hexadecahydrocyclopropa[e]pyrrolo[1,2-a][1,4]diazacyclopentadecin-6-yl)carbamate] | 0.1 to 0.5 nM
COC[C@@H]1C[C@H](C)CC/C=C\[C@@H]2C[C@@]2(C(=O)NS(=O)(=O)C2(C)CC2)NC(=O)[C@@H]2C[C@@H](Oc3nc4cc(OC)c(F)cc4nc3C(F)(F)F)CN2C(=O)[C@H]1NC(=O)OC(C)(C)C(F)(F)F [Compound 1048, 1,1,1-trifluoro-2-methylpropan-2-yl ((2R,6S,7R,9R,13aS,14aR,16aS,Z)-2-((6-fluoro-7-methoxy-3-(trifluoromethyl)quinoxalin-2-yl)oxy)-7-(methoxymethyl)-9-methyl-14a-(((1-methylcyclopropyl)sulfonyl)carbamoyl)-5,16-dioxo-1,2,3,5,6,7,8,9,10,11,13a,14,14a,15,16,16a-hexadecahydrocyclopropa[e]pyrrolo[1,2-a][1,4]diazacyclopentadecin-6-yl)carbamate] | 0.1 to 0.5 nM
